Laboratory results: BindingDB's records for doi:10.1016/j.ejmech.2011.02.067 (University of Lisbon, 2011)

Assay: Inhibition of human recombinant caspase-3 expressed in Saccharomyces cerevisiae CG379 assessed as growth stimulation after 2 days

Compound CC(C)[C@H](NC(=O)OCc1ccccc1)C(=O)N[C@H](C=CS(C)(=O)=O)CC(=O)O [(S)-3-((S)-2-(benzyloxycarbonylamino)-3-methylbutanamido)-5-(methylsulfonyl)pent-4-enoic acid] has an IC50 of 35.3 µM.
